Experimental data reported in patent publication US8742106B2 (Novartis AG, priority 2009, dated 2014).
pKd, pKi: −log10 of the molar value.

Key:
human orexin 2 receptors [1] = biological target: T1, human orexin 2 receptors (Homo sapiens (Human), UniProt O43614); test: Radioligand Binding Assay II ([3H]-SB649868 competition, cell membranes); conditions: read-out: binding II hOx2R Kd
Protocol: (§1) Radioligand Binding Assay II
(§2) For crude cell membrane preparations, cells (CHO, Chinese hamster ovary or HEK, human embryonic kidney) expressing human orexin 1 or human orexin 2 receptors, were washed with HEPES (10 mM, pH 7.5), scraped off the culture plates with the same buffer, and centrifuged at 4° C. for 5 min at 2500×g. The cell pellet was either stored at −80° C. or used directly. Before the experiments, cell membranes were re-suspended in binding assay buffer (10 mM HEPES, 0.5% (w/v) bovine serum albumin, pH 7.5) by homogenisation with a Polytron homogeniser at 50 Hz for 20 s. Cell membranes were also used as made available by commercial providers.
(§3) Bound radioactivity was measured, and data were analysed with the program XLFIT or Graphpad Prism. Protein concentration was determined according to the Bradford/BioRad Protein Assay Kit.
(§4) In competition experiments, cell homogenates (150 μl) were incubated in assay buffer (10 mM HEPES, pH 7.5, 0.5% (w/v) bovine serum albumin, 5 mM MgCl2, 1 mM CaCl2, and tween 0.05%) for 1 h at room temperature with about 1 nM of the radioligand [^3H]-SB649868, 66 Ci/mmole, 50 μl), and with various concentrations of compounds of the invention (50 μl) in triplicates; non-specific binding was determined in the presence of almorexant (10 μM). Reactions were terminated by vacuum filtration, 3 washes of ice cold wash buffer (Tris-HCl pH 7.4/10 mM, with NaCl 154 mM).

human orexin 1 receptors [2] = biological target: T2, human orexin 1 receptors (Homo sapiens (Human), UniProt O43613); test: Calcium Accumulation in Cells (FLIPR), antagonism of orexin A; type: cell-based; conditions: antagonism of orexin A, Cheng-Prusoff corrected; read-out: FLIPR hOx1R Ki
T2 sequence (O43613 whole entry): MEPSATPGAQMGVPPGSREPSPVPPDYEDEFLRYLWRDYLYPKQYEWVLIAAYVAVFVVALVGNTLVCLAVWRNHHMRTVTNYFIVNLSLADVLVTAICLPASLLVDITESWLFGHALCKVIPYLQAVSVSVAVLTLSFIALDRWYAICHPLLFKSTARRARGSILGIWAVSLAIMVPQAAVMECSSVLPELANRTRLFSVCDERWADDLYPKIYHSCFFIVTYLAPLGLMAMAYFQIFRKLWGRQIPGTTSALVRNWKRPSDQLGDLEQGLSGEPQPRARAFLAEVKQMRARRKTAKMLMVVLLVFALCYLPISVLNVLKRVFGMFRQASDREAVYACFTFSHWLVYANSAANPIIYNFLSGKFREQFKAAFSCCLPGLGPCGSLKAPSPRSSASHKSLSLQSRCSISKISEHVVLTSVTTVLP

human orexin 2 receptors [3] = biological target: T1, human orexin 2 receptors; test: as above; type: cell-based; conditions: for pKi: antagonism of orexin A, Cheng-Prusoff corrected, read-out: FLIPR hOx2R Ki; for inhibition at 10 µM: measured at a concentration of 10 μM of compound, read-out: FLIPR hOx2R % inhibition value
Procedure, shortened: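 Cells expressing human orexin 2 receptor, loaded with Fluo4-AM (2 μM) plus probenecid (0.1 mM) for 1 h, then washed. Antagonism read as inhibition of the orexin A calcium fluorescence signal (FLIPR).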

human orexin 1 receptors [4] = biological target: T2, human orexin 1 receptors; test: Radioligand Binding Assay II ([3H]-SB649868 competition, cell membranes); conditions: read-out: binding II hOx1R Kd
Protocol: as §1, §2, §3
as §4, with “mM). Competition data is expressed in Table 2 as Kd [μM].” for “mM).”

T1 sequence (O43614 whole entry): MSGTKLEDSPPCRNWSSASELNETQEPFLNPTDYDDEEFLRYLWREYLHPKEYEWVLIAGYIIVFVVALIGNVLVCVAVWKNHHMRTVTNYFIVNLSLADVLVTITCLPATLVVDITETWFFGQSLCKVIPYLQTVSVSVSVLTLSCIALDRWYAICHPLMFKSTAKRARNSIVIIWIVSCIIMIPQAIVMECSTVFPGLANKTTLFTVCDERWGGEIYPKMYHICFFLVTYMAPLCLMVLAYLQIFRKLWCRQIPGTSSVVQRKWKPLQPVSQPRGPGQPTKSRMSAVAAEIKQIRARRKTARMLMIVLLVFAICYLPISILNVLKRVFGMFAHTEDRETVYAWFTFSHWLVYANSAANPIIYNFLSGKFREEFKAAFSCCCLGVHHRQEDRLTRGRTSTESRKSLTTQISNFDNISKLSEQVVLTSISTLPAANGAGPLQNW

Q: What does the source list for `COc1ccc2c(c1)CC[C@@H]2NC(=O)C(C)Oc1cc(C)c2c(C3CC3)nn(C)c2n1` (single isomer, unassigned) [Example 6.71, (R or S)-2-(3-cyclopropyl-1,4-dimethyl-1H-pyrazolo[3,4-b]pyridin-6-yloxy)-N-((S)-5-methoxy-2,3-dihydro-1H-inden-1-yl)propanamide]?
A: pKd (human orexin 2 receptors [1]): 7.02; pKi (human orexin 1 receptors [2]): 6.46; pKi (human orexin 2 receptors [3]): 7.26; pKd (human orexin 1 receptors [4]): 6.23

Q: `Cc1ccc([C@H](C)NC(=O)COc2cc(C)c3c(-c4ncccc4F)nn(C)c3n2)cc1` [Example 4.1, (S)-2-((3-(3-fluoropyridin-2-yl)-1,4-dimethyl-1H-pyrazolo[3,4-b]pyridin-6-yl)oxy)-N-(1-(p-tolyl)ethyl)acetamide] was tested. Which pKd (human orexin 2 receptors [1]) did it give?
A: 7.66

Q: And the pKi (human orexin 1 receptors [2])?
A: 6.88

Q: And the pKi (human orexin 2 receptors [3])?
A: 7.46

Q: What about the pKd (human orexin 1 receptors [4]) of the same molecule?
A: 7.57

Q: What does the source list for `Cc1ccc([C@H](C)NC(=O)COc2cc(C)c3c(-c4ncco4)nn(C)c3n2)cc1` [Example 4.2, (S)-2-(1,4-dimethyl-3-(oxazol-2-yl)-1H-pyrazolo[3,4-b]pyridin-6-yloxy)-N-(1-p-tolylethyl)acetamide]?
A: pKd (human orexin 2 receptors [1]): 7.77; pKi (human orexin 1 receptors [2]): 7.17; pKi (human orexin 2 receptors [3]): 7.49; pKd (human orexin 1 receptors [4]): 8.00

Q: With `COc1ccc2c(c1)CCC2NC(=O)COc1cc(C)c2c(C3CC3)nn(C)c2n1` (stereo not shown) [Example 6.3, 2-(3-cyclopropyl-1,4-dimethyl-1H-pyrazolo[3,4-b]pyridin-6-yloxy)-N-(5-methoxy-2,3-dihydro-1H-inden-1-yl)acetamide] as the molecule, how does the pKi (human orexin 1 receptors [2]) read?
A: 6.72

Q: What about the pKd (human orexin 1 receptors [4]) of the same molecule?
A: 7.00

Q: `COc1ccc2c(c1)CC[C@@H]2NC(=O)COc1cc(C)c2c(C3CC3)nn(C)c2n1` [Example 6.5, (S)-2-(3-cyclopropyl-1,4-dimethyl-1H-pyrazolo[3,4-b]pyridin-6-yloxy)-N-(5-methoxy-2,3-dihydro-1H-inden-1-yl)acetamide] was tested. Which pKi (human orexin 1 receptors [2]) did it give?
A: 6.82

Q: What about the pKd (human orexin 1 receptors [4]) of the same molecule?
A: 7.17

Q: `COc1ccc([C@H](C)NC(=O)COc2cc(C)c3c(-c4cc(OC)cc(OC)c4)nn(C)c3n2)cc1` [Example 6.36, (S)-2-(3-(3,5-dimethoxyphenyl)-1,4-dimethyl-1H-pyrazolo[3,4-b]pyridin-6-yloxy)-N-(1-(4-methoxyphenyl)ethyl)acetamide] was tested. Which pKd (human orexin 2 receptors [1]) did it give?
A: 6.30

Q: What about the pKi (human orexin 2 receptors [3]) of the same molecule?
A: 6.49

Q: And the pKd (human orexin 1 receptors [4])?
A: 7.72

Q: How did the pKi (human orexin 1 receptors [2]) turn out when `Cc1cccc(C(C)NC(=O)COc2cc(C)c3c(C4CC4)nn(C)c3n2)c1` (stereo not shown) [Example 7.29, 2-(3-cyclopropyl-1,4-dimethyl-1H-pyrazolo[3,4-b]pyridin-6-yloxy)-N-(1-m-tolylethyl)acetamide] was run?
A: 5.74

Q: And the pKi (human orexin 2 receptors [3])?
A: 6.05

Q: `Cc1cc(OCC(=O)NC(C)c2nc3ccc(Cl)cc3s2)nc2c1c(C1CC1)nn2C` (stereo not shown) [Example 7.30, N-(1-(6-chlorobenzo[d]thiazol-2-yl)ethyl)-2-(3-cyclopropyl-1,4-dimethyl-1H-pyrazolo[3,4-b]pyridin-6-yloxy)acetamide] was tested. Which pKi (human orexin 1 receptors [2]) did it give?
A: 6.03

Q: And the inhibition at 10 µM (human orexin 2 receptors [3])?
A: 26%

Q: How did the pKi (human orexin 1 receptors [2]) turn out when `Cc1ccc2c(cnn2C)c1CNC(=O)COc1cc(C)c2c(C3CC3)nn(C)c2n1` [Example 7.31, 2-(3-cyclopropyl-1,4-dimethyl-1H-pyrazolo[3,4-b]pyridin-6-yloxy)-N-((1,5-dimethyl-1H-indazol-4-yl)methyl)acetamide] was run?
A: 6.07

Q: And the pKi (human orexin 2 receptors [3])?
A: 6.08

Q: Which results are given for `COc1cccc2c1CCCC2NC(=O)COc1cc(C)c2c(C3CC3)nn(C)c2n1` (stereo not shown) [Example 7.32, 2-(3-cyclopropyl-1,4-dimethyl-1H-pyrazolo[3,4-b]pyridin-6-yloxy)-N-(5-methoxy-1,2,3,4-tetrahydronaphthalen-1-yl)acetamide]?
A: pKi (human orexin 1 receptors [2]): 6.86; pKi (human orexin 2 receptors [3]): 6.52

Q: `CCOc1ccc(CNC(=O)COc2cc(C)c3c(C4CC4)nn(C)c3n2)cc1` [Example 7.33, 2-(3-cyclopropyl-1,4-dimethyl-1H-pyrazolo[3,4-b]pyridin-6-yloxy)-N-(4-ethoxybenzyl)acetamide] was tested. Which pKi (human orexin 1 receptors [2]) did it give?
A: 5.50

Q: And the inhibition at 10 µM (human orexin 2 receptors [3])?
A: 24%

Q: How did the pKi (human orexin 1 receptors [2]) turn out when `Cc1cc(OCC(=O)NC(C)c2cnc3c(ccn3C)c2)nc2c1c(C1CC1)nn2C` (stereo not shown) [Example 8.1, 2-(3-cyclopropyl-1,4-dimethyl-1H-pyrazolo[3,4-b]pyridin-6-yloxy)-N-(1-(1-methyl-1H-pyrrolo[2,3-b]pyridin-5-yl)ethyl)acetamide] was run?
A: 7.04

Q: What about the pKi (human orexin 2 receptors [3]) of the same molecule?
A: 6.78
